Columns and labels:
RS4-11 = assay: Antiproliferative activity against human RS4:11 cells after 72 hrs by MTS assay; assay type: functional, cell-based; details: RS4-11, 72 h
Bcl-2-like protein 1 = Bcl-2-like protein 1 (Homo sapiens, UniProt Q07817); assay: Inhibition of FAM-labelled Bax binding to Bcl-xL (unknown origin) after 30 mins by fluorescence polarization assay
[1] = biological target: Apoptosis regulator Bcl-2 (Homo sapiens, UniProt P10415); assay: Inhibition of FAM-labelled Bax binding to Bcl2 (unknown origin) after 30 mins by fluorescence polarization assay
Apoptosis regulator Bcl-2, sequence (P10415 whole entry): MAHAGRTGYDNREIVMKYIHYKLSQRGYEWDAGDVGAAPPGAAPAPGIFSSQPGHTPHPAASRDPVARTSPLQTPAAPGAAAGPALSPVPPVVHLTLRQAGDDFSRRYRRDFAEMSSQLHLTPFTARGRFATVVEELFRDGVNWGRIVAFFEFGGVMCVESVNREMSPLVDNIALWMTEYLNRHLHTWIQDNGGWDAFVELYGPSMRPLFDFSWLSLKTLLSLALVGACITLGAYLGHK

Toledo = assay: Antiproliferative activity against human Toledo cells after 72 hrs by MTS assay; assay type: functional, cell-based
Homo sapiens = organism: Homo sapiens; assay: Selectivity factor, ratio of IC50 for Bcl-xL (unknown origin) to Bcl2 (unknown origin)
[2] = Apparent permeability across apical to basolateral side in human Caco2 cells at 20 uM; assay type: ADME, cell-based; details: Caco-2
[3] = biological target: Voltage-gated inwardly rectifying potassium channel KCNH2 (Homo sapiens, UniProt Q12809); assay: Inhibition of human ERG
Voltage-gated inwardly rectifying potassium channel KCNH2, sequence (Q12809 whole entry): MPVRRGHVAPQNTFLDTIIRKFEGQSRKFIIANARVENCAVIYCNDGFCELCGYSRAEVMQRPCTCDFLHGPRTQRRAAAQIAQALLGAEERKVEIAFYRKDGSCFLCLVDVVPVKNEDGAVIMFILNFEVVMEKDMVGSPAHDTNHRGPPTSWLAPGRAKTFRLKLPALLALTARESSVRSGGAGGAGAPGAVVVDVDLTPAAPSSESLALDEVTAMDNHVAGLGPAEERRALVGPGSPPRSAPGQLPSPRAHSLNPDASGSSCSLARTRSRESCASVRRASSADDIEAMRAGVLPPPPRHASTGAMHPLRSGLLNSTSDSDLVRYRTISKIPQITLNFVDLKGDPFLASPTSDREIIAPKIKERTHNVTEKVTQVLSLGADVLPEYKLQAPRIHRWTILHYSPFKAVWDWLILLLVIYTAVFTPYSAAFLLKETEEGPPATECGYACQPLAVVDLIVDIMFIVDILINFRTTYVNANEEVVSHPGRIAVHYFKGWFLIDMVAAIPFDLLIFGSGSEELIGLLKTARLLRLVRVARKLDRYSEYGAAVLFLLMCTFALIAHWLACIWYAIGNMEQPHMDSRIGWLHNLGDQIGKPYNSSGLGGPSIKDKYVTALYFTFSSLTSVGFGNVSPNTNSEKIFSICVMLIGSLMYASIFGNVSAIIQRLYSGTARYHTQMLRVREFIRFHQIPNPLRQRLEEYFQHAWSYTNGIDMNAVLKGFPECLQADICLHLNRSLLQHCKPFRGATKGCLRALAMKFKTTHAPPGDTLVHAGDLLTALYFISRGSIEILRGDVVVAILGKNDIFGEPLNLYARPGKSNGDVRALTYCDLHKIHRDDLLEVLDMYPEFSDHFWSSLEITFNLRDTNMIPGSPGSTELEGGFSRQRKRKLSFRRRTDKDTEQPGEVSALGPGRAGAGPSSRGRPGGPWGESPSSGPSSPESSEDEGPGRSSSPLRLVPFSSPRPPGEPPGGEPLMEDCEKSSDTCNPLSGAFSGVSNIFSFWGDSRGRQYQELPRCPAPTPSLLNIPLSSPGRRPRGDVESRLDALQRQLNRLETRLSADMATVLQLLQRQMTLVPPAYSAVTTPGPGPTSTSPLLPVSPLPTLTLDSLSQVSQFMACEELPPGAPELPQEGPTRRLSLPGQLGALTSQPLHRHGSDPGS

[4] = Efflux ratio of apparent permeability across […] to apical side in human Caco2 cells at 20 uM; assay type: ADME, cell-based; details: Caco-2
[5] = Apparent permeability across basolateral to apical side in human Caco2 cells at 20 uM; assay type: ADME, cell-based; details: Caco-2

Bcl-2-like protein 1, sequence (Q07817 whole entry): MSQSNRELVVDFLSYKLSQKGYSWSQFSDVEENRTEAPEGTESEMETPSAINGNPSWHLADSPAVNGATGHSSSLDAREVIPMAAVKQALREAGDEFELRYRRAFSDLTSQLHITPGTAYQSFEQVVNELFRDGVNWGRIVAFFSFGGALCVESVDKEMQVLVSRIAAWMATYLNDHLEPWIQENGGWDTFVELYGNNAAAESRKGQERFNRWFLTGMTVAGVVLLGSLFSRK

| Structure (SMILES) | IC50 (RS4-11) [nM] | IC50 (Bcl-2-like protein 1) [nM] | IC50 [1] [nM] | IC50 (Toledo) [nM] | Ratio IC50 (Homo sapiens) | Papp A→B at 20 µM [2] [×10⁻⁶ cm/s] | IC50 [3] [nM] | efflux ratio at 20 µM [4] | Papp B→A at 20 µM [5] [×10⁻⁶ cm/s] |
| --- | --- | --- | --- | --- | --- | --- | --- | --- | --- |
| C[C@H]1[C@@H](CCN2CCN(c3ccc(C(=O)NS(=O)(=O)c4ccc(NCC5CCOCC5)c([N+](=O)[O-])c4)c(Oc4cnc5[nH]ccc5c4)c3)CC2)O[C@@H]2O[C@@]3(C)CC[C@H]4[C@H](C)CC[C@@H]1[C@@]24O3 | 1300 | > 1000 | 1.8 | 2600 | > 546 | – | – | – | – |
| C[C@@H]1CC[C@H]2[C@@H](C)C(OCCN3CCN(c4ccc(C(=O)NS(=O)(=O)c5ccc(NCC6CCOCC6)c([N+](=O)[O-])c5)c(Oc5cnc6[nH]ccc6c5)c4)C[C@H]3CO)O[C@@H]3O[C@@]4(C)CC[C@@H]1[C@]32OO4 (stereo partly drawn) | > 1000 | > 1000 | 67.1 | > 1000 | 14.9 | – | – | – | – |
| C[C@@H]1CC[C@H]2C(CN3CCN(c4ccc(C(=O)NS(=O)(=O)c5ccc(NCC6CCOCC6)c([N+](=O)[O-])c5)c(Oc5cnc6[nH]ccc6c5)c4)CC3)=C(C(F)(F)F)O[C@@H]3O[C@@]4(C)CC[C@@H]1[C@]32O4 | 1900 | 970 | 2.8 | 7400 | 343 | – | – | – | – |
| C[C@H]1[C@@H](CCN2CCN(c3ccc(C(=O)NS(=O)(=O)c4ccc(NCC5CCOCC5)c([N+](=O)[O-])c4)c(Oc4cnc5[nH]ccc5c4)c3)CC2)O[C@@H]2O[C@@]3(C)CC[C@H]4[C@H](C)CC[C@@H]1[C@@]24OO3 | – | > 1000 | 9.7 | – | > 103 | – | – | – | – |
| C[C@H]1[C@@H](OCCN2CCN(c3ccc(C(=O)NS(=O)(=O)c4ccc(NCC5CCOCC5)c([N+](=O)[O-])c4)c(Oc4cnc5[nH]ccc5c4)c3)CC2)O[C@@H]2O[C@@]3(C)CC[C@H]4[C@H](C)CC[C@@H]1[C@@]24OO3 | 520 | 279 | 5 | 950 | 55.3 | 0.21 | > 40000 | 28.8 | 6.07 |
| CO[C@H]1OC2O[C@@]3(C)CC[C@H]4[C@H](C)CC[C@@H]([C@]1(C)CC(=O)N1CCN(c5ccc(C(=O)NS(=O)(=O)c6ccc(NCC7CCOCC7)c([N+](=O)[O-])c6)c(Oc6cnc7[nH]ccc7c6)c5)CC1)[C@@]24OO3 (stereo partly drawn) | – | > 1000 | 34.7 | – | > 28.8 | – | – | – | – |
| C[C@H]1[C@@H](OCCN2CCN(c3ccc(C(=O)NS(=O)(=O)c4ccc(NCC5CCOCC5)c([N+](=O)[O-])c4)c(Oc4cnc5[nH]ccc5c4)c3)CC2)O[C@@H]2O[C@]3(C)O[C@]24[C@H]1CC[C@@H](C)[C@@H]4C[C@H]3O | – | > 1000 | 31.9 | – | > 31.3 | – | – | – | – |
| C[C@H]1[C@@H](CC(=O)N2CCN(c3ccc(C(=O)NS(=O)(=O)c4ccc(NCC5CCOCC5)c([N+](=O)[O-])c4)c(Oc4cnc5[nH]ccc5c4)c3)CC2)O[C@@H]2O[C@@]3(C)CC[C@H]4[C@H](C)CC[C@@H]1[C@@]24OO3 | – | 109 | 11.9 | – | 9.16 | – | – | – | – |
| C[C@@H]1CC[C@H]2C(CN3CCN(c4ccc(C(=O)NS(=O)(=O)c5ccc(NCC6CCOCC6)c([N+](=O)[O-])c5)c(Oc5cnc6[nH]ccc6c5)c4)CC3)=C(C(F)(F)F)O[C@@H]3O[C@@]4(C)CC[C@@H]1[C@]32OO4 | > 1000 | 71.9 | 6.2 | > 1000 | 11.7 | – | – | – | – |
| CC1(C)CCC(CN2CCN(c3ccc(C(=O)NS(=O)(=O)c4ccc(NCC5CCOCC5)c([N+](=O)[O-])c4)c(Oc4cnc5[nH]ccc5c4)c3)CC2)=C(c2ccc(Cl)cc2)C1 [VENETOCLAX] | 6 | – | – | 11 | – | – | – | – | – |
| C[C@@H]1CC[C@@H]2[C@]34OO[C@](C)(CC[C@@H]13)O[C@H]4O[C@]2(C)C(=O)N1CCN(c2ccc(C(=O)NS(=O)(=O)c3ccc(NCC4CCOCC4)c([N+](=O)[O-])c3)c(Oc3cnc4[nH]ccc4c3)c2)CC1 | – | 512 | 13 | – | 39.2 | – | – | – | – |
| C[C@H]1[C@@H](CCCN2CCN(c3ccc(C(=O)NS(=O)(=O)c4ccc(NCC5CCOCC5)c([N+](=O)[O-])c4)c(Oc4cnc5[nH]ccc5c4)c3)CC2)O[C@@H]2O[C@@]3(C)CC[C@H]4[C@H](C)CC[C@@H]1[C@@]24OO3 | 890 | > 1000 | 1.2 | 880 | > 806 | – | > 40000 | – | – |
| C[C@@H]1CC[C@H]2[C@@H](C)C(OCCN3CCN(c4ccc(C(=O)NS(=O)(=O)c5ccc(NCC6CCOCC6)c([N+](=O)[O-])c5)c(Oc5cnc6[nH]ccc6c5)c4)C[C@@H]3CO)O[C@@H]3O[C@@]4(C)CC[C@@H]1[C@]32OO4 (stereo partly drawn) | > 1000 | > 1000 | 28.7 | > 1000 | 34.8 | – | – | – | – |
| C[C@@H]1CC[C@H]2[C@@](C)(O)[C@@H](OCCN3CCN(c4ccc(C(=O)NS(=O)(=O)c5ccc(NCC6CCOCC6)c([N+](=O)[O-])c5)c(Oc5cnc6[nH]ccc6c5)c4)CC3)O[C@@H]3O[C@@]4(C)CC[C@@H]1[C@]32OO4 | – | 287 | 86.5 | – | 3.3 | – | – | – | – |
| C[C@H]1[C@@H](CC(=O)N2CCN(c3ccc(C(=O)NS(=O)(=O)c4ccc(NCC5CCOCC5)c([N+](=O)[O-])c4)c(Oc4cnc5[nH]ccc5c4)c3)CC2)O[C@@H]2O[C@]3(C)O[C@]24[C@H]1CC[C@@H](C)[C@@H]4C[C@H]3O | > 1000 | 765 | 50.1 | > 1000 | 15.3 | – | – | – | – |
| C[C@@H]1CC[C@H]2[C@@H](C)C(OCCNC3CCN(c4ccc(C(=O)NS(=O)(=O)c5ccc(NCC6CCOCC6)c([N+](=O)[O-])c5)c(Oc5cnc6[nH]ccc6c5)c4)CC3)O[C@@H]3O[C@@]4(C)CC[C@@H]1[C@]32OO4 (stereo partly drawn) | > 1000 | > 1000 | 1.9 | > 1000 | > 526 | – | – | – | – |
| C[C@H]1[C@@H](CC(=O)N2CCN(c3ccc(C(=O)NS(=O)(=O)c4ccc(NCC5CCOCC5)c([N+](=O)[O-])c4)c(Oc4cnc5[nH]ccc5c4)c3)CC2)O[C@@H]2O[C@@]3(C)CC[C@H]4[C@H](C)CC[C@@H]1[C@@]24O3 | > 1000 | 270 | 3.5 | > 1000 | 77.2 | – | – | – | – |
| C[C@H]1[C@@H](OCCN2CCN(c3ccc(C(=O)NS(=O)(=O)c4ccc(NCC5CCOCC5)c([N+](=O)[O-])c4)c(Oc4cnc5[nH]ccc5c4)c3)CC2)O[C@@H]2O[C@@]3(C)CC[C@H]4[C@H](C)CC[C@@H]1[C@@]24O3 | 4400 | 624 | 2.2 | 9700 | 280 | – | – | – | – |
| C[C@H]1[C@H](N(C)CCN2CCN(c3ccc(C(=O)NS(=O)(=O)c4ccc(NCC5CCOCC5)c([N+](=O)[O-])c4)c(Oc4cnc5[nH]ccc5c4)c3)CC2)O[C@@H]2O[C@@]3(C)CC[C@H]4[C@H](C)CC[C@@H]1[C@@]24OO3 | – | > 1000 | 16.7 | – | > 59.9 | – | – | – | – |

— ChEMBL document CHEMBL4261603, “Development of high potent and selective Bcl-2 inhibitors bearing the structural elements of natural product artemisinin” (Eur J Med Chem, 2018)
